Measured values taken from US9868750B2, “4,5-diarylimidazole derivatives as HDAC inhibitors” (CHARITÉ—UNIVERSITÄTSMEDIZIN BERLIN, priority 2014, dated 2018).
Structures can show the parent of a compound that is named as a salt. Where two headings read alike, the source gives them in different places.

What was measured:
[1] = tested on: resistant colon (HT-29) cell line; experiment: Growth inhibition (MTT) in HT-29 colon cancer cells; assay type: cell-based, human
[2] = tested on: BRAF-mutant melanoma (518A2); experiment: Growth inhibition (MTT) in 518A2 melanoma cells; assay type: cell-based, human
[3] = tested on: 1411HP xenograft (Cisplatin-resistant testicular cancer); experiment: 1411HP xenograft model; assay type: in vivo, mouse; conditions: 150 mg/kg i.p.
Experimental: FIG. 9: Activity of Et-Animacroxam (compound 3) in the 1411HP xenograft model (left: before treatment; right: 24 h after treatment with 150 mg/kg i.p. of Et-Animacroxam).

[4] = tested on: resistant breast (MCF-7/Topo) cell line; experiment: Growth inhibition in MCF-7/Topo breast cancer cells; assay type: cell-based
[5] = tested on: resistant cervix carcinoma (KB-V1/Vbl) cell line; experiment: Growth inhibition in KB-V1/Vbl cervix carcinoma cells; assay type: cell-based; conditions: Homo sapiens, 72 h, read-out: IC50 KB-V1/Vbl
Tolerance in Balb/c mice = assay type: in vivo; conditions: two Balb/c mice
Description: FIG. 8: Tolerance of Et-Animacroxam (compound 3) in two Balb/c mice (x-axis: day 1-7; y-axis: weight in gram).

[6] = tested on: EGF-stimulated MCF-7/Topo cells; experiment: Matrigel-Transwell-Migration Assay; assay type: cell-based; conditions: EGF 200 ng/mL, 48 h
Experimental: FIG. 6: Influence of imidazole-based HDAC inhibitors Et-Animacroxam (compound 3) and Bimacroxam (compound 4) on resistance factors in tumor cell lines. A: Western blot analysis of Akt-phosphorylation (phospho-Akt) in 518A2 and MCF-7/Topo cell lysates (10 μg protein each) after 6 h of incubation. […] The amount of invasive cells was determined after calcein treatment via fluorescence measurement and DMSO-treated controls without EGF were set to 100%.

[7] = tested on: hybrid endothelial cells (Ea.hy926); experiment: Growth inhibition in Ea.hy926 cells; assay type: cell-based; conditions: for IC50: Homo sapiens, EA.hy 926, 72 h
[8] = tested on: non-malignant fibroblasts (CF, chicken fibroblasts); experiment: Growth inhibition in chicken fibroblasts; assay type: cell-based; conditions: Gallus gallus, Fibroblast, 72 h
[9] = tested on: HDAC active isolates from HeLa nuclear extract; experiment: Fluorescence-based HDAC activity assay, HeLa nuclear extract; conditions: read-out: HDAC inhibition IC50, HeLa nuclear extract; 0.5 μg extract, 25 μM Fluor-de-Lys substrate, 60 min
Experimental: (§1) Briefly, cell pellets from mass cultures were resuspended and incubated in cell extraction buffer (20 mM HEPES, 10 mM KCl, 0.1 mM EDTA, 0.1 mM EGTA, 1.5 mM MgCl2, 0.5 mM DTT) containing 0.1% Triton X-100 to lyse cell membranes and leave intact nuclei. After centrifugation (3,000 g, 2 min), the supernatant containing cytosolic proteins was aspirated from the nuclei pellet and the protein concentration of the cytosolic fraction was determined by a standard Bradford assay (Pierce/Thermo Scientific).
(§2) A fluorescence-based HDAC activity assay was used to assess the compound specificity for distinct HDAC classes. […] The Fluor-de-Lys substrate used allows to measure broad-spectrum HDAC activity from extracts or recombinant protein.

[10] = tested on: acetylated lysine residues in alpha-tubulin, 518A2 melanoma cells; experiment: Immunoblot for acetylated alpha-tubulin in 518A2 cells; assay type: cell-based, human; conditions: […] or 5 μM, 24 h, versus SAHA 5 μM
Description: Cell lysates were subjected to gel electrophoresis and immunoblotting for acetylated lysine residues in alpha-tubulin (55 kDa).

[11] = tested on: primary endothelial cells (HUVEC, human umbilical vein endothelial cells); experiment: Growth inhibition in HUVEC; assay type: cell-based; conditions: for IC50: 72 h
[12] = tested on: HDAC active isolates from HeLa cytosolic extract; experiment: Fluorescence-based HDAC activity assay, HeLa cytosolic extract; conditions: for IC50: read-out: HDAC inhibition IC50, HeLa cytosolic extract, 1 μg extract, 25 μM Fluor-de-Lys substrate, 60 min
Experimental: as §1, §2

recombinant human HDAC1 = recombinant human HDAC1 (Homo sapiens, UniProt Q13547); experiment: Fluorescence-based HDAC activity assay, recombinant HDAC1; conditions: for fold less efficacious than vorinostat on HDAC1: relative to vorinostat IC50
Experimental: as §1, §2

recombinant human HDAC6 = molecular target: T1, recombinant human HDAC6 (Homo sapiens, UniProt Q9UBN7); experiment: Fluorescence-based HDAC activity assay, recombinant HDAC6
T1 sequence (Q9UBN7 1-1215): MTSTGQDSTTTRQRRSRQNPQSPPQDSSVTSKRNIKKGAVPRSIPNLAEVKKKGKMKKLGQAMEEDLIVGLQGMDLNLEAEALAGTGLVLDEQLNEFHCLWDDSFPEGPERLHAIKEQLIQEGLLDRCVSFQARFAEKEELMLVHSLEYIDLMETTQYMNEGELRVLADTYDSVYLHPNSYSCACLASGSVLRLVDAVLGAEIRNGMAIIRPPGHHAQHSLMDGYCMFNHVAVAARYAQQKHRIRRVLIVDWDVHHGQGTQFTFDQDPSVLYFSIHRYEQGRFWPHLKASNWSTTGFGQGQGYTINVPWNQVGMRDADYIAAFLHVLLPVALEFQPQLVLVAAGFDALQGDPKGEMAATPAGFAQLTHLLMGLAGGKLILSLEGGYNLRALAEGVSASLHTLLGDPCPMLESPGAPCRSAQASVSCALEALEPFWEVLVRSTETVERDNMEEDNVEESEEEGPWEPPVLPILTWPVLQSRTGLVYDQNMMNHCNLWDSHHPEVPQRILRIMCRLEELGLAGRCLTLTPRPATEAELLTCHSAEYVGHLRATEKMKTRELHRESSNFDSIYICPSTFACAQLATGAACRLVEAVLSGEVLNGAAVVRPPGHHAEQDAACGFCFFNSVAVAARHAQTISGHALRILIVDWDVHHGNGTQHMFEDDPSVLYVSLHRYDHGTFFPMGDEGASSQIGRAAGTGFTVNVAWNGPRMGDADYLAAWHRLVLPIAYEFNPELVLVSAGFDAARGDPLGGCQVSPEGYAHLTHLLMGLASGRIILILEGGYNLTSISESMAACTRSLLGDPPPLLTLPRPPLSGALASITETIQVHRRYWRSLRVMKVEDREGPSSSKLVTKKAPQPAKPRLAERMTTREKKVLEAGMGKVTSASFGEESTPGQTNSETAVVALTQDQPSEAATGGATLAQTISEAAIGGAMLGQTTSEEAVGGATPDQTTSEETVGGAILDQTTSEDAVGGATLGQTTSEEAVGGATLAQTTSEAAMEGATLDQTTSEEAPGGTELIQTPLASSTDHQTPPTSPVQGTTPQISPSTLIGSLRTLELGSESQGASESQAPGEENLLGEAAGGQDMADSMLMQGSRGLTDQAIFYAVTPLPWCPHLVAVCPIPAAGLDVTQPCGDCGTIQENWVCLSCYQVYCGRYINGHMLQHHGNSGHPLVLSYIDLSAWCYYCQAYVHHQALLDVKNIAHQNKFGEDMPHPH
Description: as §2

518A2 melanoma cells = experiment: Western blot of 518A2 cell lysates: caspase-9 cleavage and histone H2B acetylation; assay type: cell-based, human; conditions: 518A2 cells; for acetylation of histone proteins (H2B) and alpha-tubulin after drug treatment: Western blot
Experimental: Western blot analysis of 518A2 cell lysates after drug treatment (3-24 h).

[13] = tested on: HDAC active isolates from HeLa nuclear extract; conditions: 0.5 μg extract, 25 μM Fluor-de-Lys substrate, 60 min; read-out: HDAC inhibition IC50, HeLa nuclear extract (values from Mahal et al. 2015); cited from earlier work

Chain of recombinant human HDAC1 (Q13547 whole entry): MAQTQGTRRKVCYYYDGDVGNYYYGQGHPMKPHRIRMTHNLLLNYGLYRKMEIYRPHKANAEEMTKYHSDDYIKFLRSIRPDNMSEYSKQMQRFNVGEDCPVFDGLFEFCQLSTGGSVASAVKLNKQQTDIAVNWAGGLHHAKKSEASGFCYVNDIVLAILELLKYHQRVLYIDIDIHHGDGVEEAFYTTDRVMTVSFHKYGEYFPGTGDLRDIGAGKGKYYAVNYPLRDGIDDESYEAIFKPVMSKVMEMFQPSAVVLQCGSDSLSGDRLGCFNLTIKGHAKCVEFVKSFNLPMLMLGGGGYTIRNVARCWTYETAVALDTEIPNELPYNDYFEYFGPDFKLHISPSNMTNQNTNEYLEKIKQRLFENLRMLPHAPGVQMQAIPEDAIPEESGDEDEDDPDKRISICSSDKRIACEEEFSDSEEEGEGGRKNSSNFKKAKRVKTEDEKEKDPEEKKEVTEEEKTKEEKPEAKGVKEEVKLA

Row | Compound | IC50 ([1]; 72 h) [nM] | IC50 ([2]; 72 h) [nM] | IC50 [5] [nM] | IC50 [7] [nM] | IC50 [8] [nM] | acetylated alpha-tubulin [10] | IC50 ([11]; Homo sapiens, HUVEC) [nM] | IC50 [12] [nM] | IC50 ([1]; Homo sapiens, HT-29, 72 h) [nM] | IC50 ([2]; Homo sapiens, 518A2, 72 h) [nM] | IC50 (recombinant human HDAC1) [nM] | fold less efficacious than vorinostat on HDAC1 (recombinant human HDAC1) | IC50 (recombinant human HDAC6) [nM] | acetylation of histone proteins (H2B) and alpha-tubulin after drug treatment (518A2 melanoma cells) | other results
1 | Cn1cnc(-c2ccc(F)cc2)c1-c1ccc(C=CC(=O)NO)cc1 [Compound F-3, 1-Methyl-4-(4-fluorophenyl)-5-(4′-hydroxyaminocarbonylethenyl-phenyl)-imidazole×HCl] | 1450 ± 60 | 1940 ± 40 |  |  |  |  |  |  |  |  |  |  |  |  | 
2 | Cn1cnc(-c2ccccc2)c1-c1ccc(/C=C/C(=O)NO)cc1 (as salt: HCl) [Compound 4, 1-Methyl-4-phenyl-5-(4′-hydroxyaminocarbonylethenyl-phenyl)-imidazole×HCl] |  |  |  |  |  |  |  |  |  |  |  |  |  |  | melting point: 189 to 190 °C
3 | CCn1cnc(-c2ccc(OC)cc2)c1-c1ccc(/C=C/C(=O)NO)cc1 [Compound 3, 1-Ethyl-4-(4-methoxyphenyl)-5-(4′-hydroxyaminocarbonylethenyl-phenyl)-imidazole×HCl] |  |  | 2910 ± 980 | 990 ± 130 | > 50000 | much higher extent compared with cells treated with SAHA | 1260 ± 450 | 36 ± 14 | 450 ± 30 | 950 ± 190 | 187 ± 37 | ca. tenfold | 66 | vastly acetylated | diameter of bigger vessels of the tumor body ([3]; after 24 h): reduced significantly; visible side effects ([3]; mouse): did not cause any visible side effects; IC50 ([4]; Homo sapiens, MCF7/Topo, 72 h, read-out: IC50 MCF-7/Topo): 5600 ± 330 nM; signs of toxicity (Tolerance in Balb/c mice; 2×20 mg/kg i.p. on two consecutive days): no signs of toxicity; weight of treated mice (Tolerance in Balb/c mice; 2×20 mg/kg i.p., day 1-7): roughly remained the same; invasiveness of MCF-7/Topo cells [6]: significantly reduced invasiveness; IC50 [9]: 504 ± 24 nM; times more active than vorinostat in the cytosolic fraction ([12]; HeLa cytosolic extract): ca. four; times more HDAC inhibiting in the cytosolic than in the nuclear fraction ([12]; HeLa cytosolic vs nuclear extract): ca. 14 times; apoptosis induction (caspase-9-cleavage) (518A2 melanoma cells; 3-24 h): leads to apoptosis induction (caspase-9-cleavage)
4 | COc1ccc(-c2ncn(C)c2-c2ccc(C=CC(=O)NO)cc2)cc1 [Compound Nor-3, 1-Methyl-4-(4-methoxyphenyl)-5-(4′-hydroxyaminocarbonylethenyl-phenyl)-imidazole×HCl] | 710 ± 60 | 1450 ± 70 |  |  |  |  |  |  |  |  |  |  |  |  | IC50 [11]: 830 ± 260 nM
5 | Cn1cnc(-c2ccccc2)c1-c1ccc(/C=C/C(=O)NO)cc1 [Compound 4, 1-Methyl-4-phenyl-5-(4′-hydroxyaminocarbonylethenyl-phenyl)-imidazole×HCl] |  |  | 5040 ± 1820 | 160 ± 30 | > 50000 | much higher extent compared with cells treated with SAHA | 550 ± 290 | 132 ± 14 | 1330 ± 70 | 2760 ± 620 | 28 ± 11 | ca. twofold | 107 ± 23 | vastly acetylated | IC50 ([4]; Homo sapiens, MCF7/Topo, 72 h; read-out: IC50 MCF-7/Topo): 15300 ± 1400 nM; fold stronger in the Ea.hy926 cell line compared with 3 and SAHA ([7]; Ea.hy926): 10 fold; IC50 [13]: 234 nM; fold stronger in primary endothelial cells compared with 3 and SAHA ([11]; HUVEC): 12 fold
6 | Cn1cnc(-c2ccccc2)c1-c1cccc(C=CC(=O)NO)c1 [Compound iso-4, 1-Methyl-4-phenyl-5-(3′-hydroxyaminocarbonylethenyl-phenyl)-imidazole×HCl] | 2800 ± 70 | 2230 ± 60 |  |  |  |  |  |  |  |  |  |  |  |  | 
